These results are taken from patent US20190185479A1, “BICYCLIC NITROGENATED HETEROCYCLIC COMPOUND” (MITSUBISHI TANABE PHARMA CORPORATION, priority 2016, published 2019).

Broadly, the IC50 is the concentration that gives 50% inhibition.

Common to all, as to format: biochemical
For assay [1], the target named is T1, Human PDE7B (hPDE7B) (Homo sapiens, UniProt Q9NP56).
T1 construct: made in house; host or cells: COS-7 cells
Nature of the assay: Measurement of PDE7 inhibitory activity (Experimental Example 1; residual cAMP, LANCE Ultra cAMP TR-FRET). Conditions: cAMP 3 nmol/L, room temperature 60 minutes. The essentials:
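hPDE7B from transfected COS-7 cells reacted with 3 nmol/L cAMP (final) and compound (2% DMSO) in 50 mmol/L Tris-HCl pH 7.5, 1 mmol/L MgCl2, 0.1% BSA, 0.5 mmol/L DTT, 60 min at room temperature. Reaction stopped with IBMX; residual cAMP measured by TR-FRET. Inhibition scaled between no-compound and no-enzyme controls.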
A general note: In TR-FRET formats the signal depends on donor and acceptor labels being close together.

The target of assay [2] is T2, hPDE4D (Homo sapiens, UniProt Q08499).
T2 construct: purchased SB Drug Discovery
T2 sequence (Q08499 whole entry): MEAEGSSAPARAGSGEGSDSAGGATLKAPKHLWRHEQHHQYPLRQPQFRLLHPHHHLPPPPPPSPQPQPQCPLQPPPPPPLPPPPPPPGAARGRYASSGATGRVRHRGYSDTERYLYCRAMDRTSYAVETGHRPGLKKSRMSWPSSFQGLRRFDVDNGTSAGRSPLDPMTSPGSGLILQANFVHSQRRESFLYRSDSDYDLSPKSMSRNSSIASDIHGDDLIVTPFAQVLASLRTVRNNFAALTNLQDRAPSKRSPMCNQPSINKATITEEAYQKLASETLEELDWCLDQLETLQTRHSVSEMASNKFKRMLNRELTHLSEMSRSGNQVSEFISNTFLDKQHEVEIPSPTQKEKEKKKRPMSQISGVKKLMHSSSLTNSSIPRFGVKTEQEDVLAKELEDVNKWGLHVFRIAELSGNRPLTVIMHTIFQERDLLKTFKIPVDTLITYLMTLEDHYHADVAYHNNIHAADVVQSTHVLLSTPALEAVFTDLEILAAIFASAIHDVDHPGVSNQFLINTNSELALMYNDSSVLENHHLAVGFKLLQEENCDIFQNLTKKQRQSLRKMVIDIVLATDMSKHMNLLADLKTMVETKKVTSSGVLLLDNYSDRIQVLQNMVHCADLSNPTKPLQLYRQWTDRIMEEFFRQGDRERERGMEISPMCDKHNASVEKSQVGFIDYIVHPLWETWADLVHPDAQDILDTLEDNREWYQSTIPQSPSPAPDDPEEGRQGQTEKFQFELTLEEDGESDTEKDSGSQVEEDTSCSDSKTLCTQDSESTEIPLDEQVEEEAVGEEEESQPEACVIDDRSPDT
Nature of the assay: PDE4 inhibition assay (IC50), Experimental Example 3. The settings on record: for IC50: hPDE4D, read-out: PDE inhibition assay IC50, PDE4; for inhibition at 1 µM: at 1 μmol/L. The method, then:
(§1) PDE7 inhibitory assay was carried out by reacting the mixture of a compound, hPDE7B, and cAMP, and measuring the residual cAMP by a detection method using LANCE (registered trademark) Ultra cAMP Detection Kit (ParkinElmer). The compound was dissolved in DMSO, and diluted so that the concentration would become 50 times of the final concentration. The hPDE7B and cAMP were diluted with an assay buffer (50 mmol/L Tris-HCl, 1 mmol/L MgCl2, 0.1% BSA, 0.5 mmol/L DTT, pH7.5) so that the hPDE7B would have an appropriate enzyme activity and the concentration of cAMP would become 6 nmol/L. To a 96 well plate were added the compound (2 μL) (DMSO final concentration: 2%), hPDE7B (48 μL), and cAMP (50 μL) (concentration at the reaction: 3 nmol/L), and the resulting mixture was reacted at room temperature for 60 minutes. The reaction solution (20 μL) was subjected to a TR-FRET method according to the protocol specified by the kit to measure the concentration of the residual cAMP. In the assay, to a tracer solution specified by the kit was added 0.5 mmol/L of 3-isobutyl-1-methylxanthine (IBMX, nonselective PDE inhibitor) in order to stop the PDE enzyme reaction after the completion of reaction until the measurement.
(§2) The prediction of PDE7 selectivity was evaluated by comparing each IC50 value of a compound against PDE4, 8, and 10 with the IC50 value of said compound against PDE7B.
(§3) hPDE4D, hPDE8B, and hPDE10A were prepared by the same method as [Method for preparing samples 2].
(§4) PDE4, 8, and 10 inhibitory assays were carried out by the same method as [Assay procedure 1].
(§5) The reaction without a compound wad defined as “0% inhibition”, the reaction without each PDE was defined as “100% inhibition”, and the calculation of IC50 value was carried out by the same method as <Method for data calculation 1>.

The target of assay [3] is T3, hPDE8B (Homo sapiens, UniProt O95263).
T3 construct: purchased SB Drug Discovery
T3 sequence (O95263 whole entry): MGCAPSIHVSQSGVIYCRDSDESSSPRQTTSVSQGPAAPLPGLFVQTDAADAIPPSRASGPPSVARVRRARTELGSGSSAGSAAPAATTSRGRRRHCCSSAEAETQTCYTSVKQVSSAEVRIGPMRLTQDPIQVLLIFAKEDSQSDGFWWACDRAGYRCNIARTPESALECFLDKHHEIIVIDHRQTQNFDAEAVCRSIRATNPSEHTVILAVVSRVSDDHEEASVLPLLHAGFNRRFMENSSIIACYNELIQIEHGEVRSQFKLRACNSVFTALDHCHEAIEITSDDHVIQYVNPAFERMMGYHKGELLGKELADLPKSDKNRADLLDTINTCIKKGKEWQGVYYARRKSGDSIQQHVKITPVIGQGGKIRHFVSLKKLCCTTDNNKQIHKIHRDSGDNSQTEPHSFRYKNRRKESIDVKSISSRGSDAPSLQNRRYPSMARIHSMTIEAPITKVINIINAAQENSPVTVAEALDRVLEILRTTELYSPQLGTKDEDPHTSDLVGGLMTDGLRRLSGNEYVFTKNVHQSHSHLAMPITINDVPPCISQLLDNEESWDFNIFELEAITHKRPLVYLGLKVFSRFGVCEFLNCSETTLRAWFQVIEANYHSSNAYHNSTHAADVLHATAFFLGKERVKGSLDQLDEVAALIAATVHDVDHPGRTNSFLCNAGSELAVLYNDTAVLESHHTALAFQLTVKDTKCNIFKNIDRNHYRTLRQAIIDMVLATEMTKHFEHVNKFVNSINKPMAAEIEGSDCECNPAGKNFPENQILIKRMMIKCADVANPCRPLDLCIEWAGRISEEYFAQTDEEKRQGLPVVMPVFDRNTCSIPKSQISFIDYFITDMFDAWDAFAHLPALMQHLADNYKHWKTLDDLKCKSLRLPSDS
Nature of the assay: PDE8 inhibition assay (IC50), Experimental Example 3. Conditions: for IC50: hPDE8B, read-out: PDE inhibition assay IC50, PDE8. The method, then: as §1, §2, §3, §4, §5

Assay [4] has as its target hPDE10A (Homo sapiens, UniProt Q9Y233). Nature of the assay: PDE10 inhibition assay (IC50), Experimental Example 3. The settings on record: for IC50: hPDE10A, read-out: PDE inhibition assay IC50, PDE10; for inhibition at 10 µM: at 10 μmol/L, read-out: inhibition rate (%) at prescribed concentration, PDE10. The method, then:
as §1, §2, §3, §4, §5

Setting [5] is: read-out: inhibition rate (%) at prescribed concentration, PDE4.
[6] abbreviates: at 1 μmol/L, read-out: inhibition rate (%) at prescribed concentration, PDE8.

A value given as a limit tells only on which side of the number the result lay.

T1 sequence (Q9NP56 whole entry): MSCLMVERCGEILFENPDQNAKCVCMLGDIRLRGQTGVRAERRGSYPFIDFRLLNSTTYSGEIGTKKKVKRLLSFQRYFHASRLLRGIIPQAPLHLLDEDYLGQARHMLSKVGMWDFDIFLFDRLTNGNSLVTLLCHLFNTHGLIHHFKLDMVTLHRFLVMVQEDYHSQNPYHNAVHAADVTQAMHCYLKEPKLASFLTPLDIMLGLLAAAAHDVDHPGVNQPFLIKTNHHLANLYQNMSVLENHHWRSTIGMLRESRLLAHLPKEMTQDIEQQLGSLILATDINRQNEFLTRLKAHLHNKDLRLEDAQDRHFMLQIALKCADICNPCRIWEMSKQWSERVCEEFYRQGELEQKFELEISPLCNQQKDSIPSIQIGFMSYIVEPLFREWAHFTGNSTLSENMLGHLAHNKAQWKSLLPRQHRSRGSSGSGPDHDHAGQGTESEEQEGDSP
Chain of hPDE10A (Q9Y233 290-1055 limits assumed): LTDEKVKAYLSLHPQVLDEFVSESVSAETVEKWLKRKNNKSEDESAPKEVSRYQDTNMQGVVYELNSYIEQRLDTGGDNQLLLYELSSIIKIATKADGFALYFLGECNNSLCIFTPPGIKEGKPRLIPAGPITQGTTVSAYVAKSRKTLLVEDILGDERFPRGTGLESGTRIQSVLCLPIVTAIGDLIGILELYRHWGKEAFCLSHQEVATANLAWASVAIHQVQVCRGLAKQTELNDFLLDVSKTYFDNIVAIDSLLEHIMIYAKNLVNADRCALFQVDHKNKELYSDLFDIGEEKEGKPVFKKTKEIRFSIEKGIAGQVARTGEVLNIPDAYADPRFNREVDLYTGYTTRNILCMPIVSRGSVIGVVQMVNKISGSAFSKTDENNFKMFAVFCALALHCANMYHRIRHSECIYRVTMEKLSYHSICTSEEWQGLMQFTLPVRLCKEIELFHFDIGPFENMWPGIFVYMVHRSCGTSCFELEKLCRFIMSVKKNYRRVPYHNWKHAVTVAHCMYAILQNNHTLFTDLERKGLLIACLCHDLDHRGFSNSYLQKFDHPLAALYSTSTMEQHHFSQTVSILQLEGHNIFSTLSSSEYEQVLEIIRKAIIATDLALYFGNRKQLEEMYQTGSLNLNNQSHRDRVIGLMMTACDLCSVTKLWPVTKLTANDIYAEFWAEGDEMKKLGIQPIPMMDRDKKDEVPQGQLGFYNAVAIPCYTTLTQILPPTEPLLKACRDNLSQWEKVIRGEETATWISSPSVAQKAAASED

Turning to `Nc1nccn2c(C3CCC4CC4C3)nnc12` (single isomer, unassigned) [Example 221, 3-(bicyclo[4.1.0]hept-3-yl) [1,2,4]triazolo[4,3-a]pyrazin-8-amine], the 50% inhibitory concentration (IC50) in assay [1] turned out to be 0.06 µM; in assay [4], 4.8 µM. The inhibition at 0.1 µM came to 55% in assay [2] (at 0.1 μmol/L, read-out: inhibition rate (%) at prescribed concentration, PDE4) and 69% in assay [3] (at 0.1 μmol/L, read-out: inhibition rate (%) at prescribed concentration, PDE8).

With `CCC1CCCCN1c1nnc2c(N)nccn12` (single isomer, unassigned) [Example 222, 3-(2-ethylpiperidin-1-yl) [1,2,4]triazolo[4,3-a]pyrazin-8-amine], the IC50 in assay [1] came to 0.08 µM; in assay [2] it was 3.24 µM; in assay [3] it was 10.6 µM; in assay [4], 6.42 µM.

With `CC1CC(C)CN(c2nnc3c(N)nccn23)C1` (single isomer, unassigned) [Example 226, 3-[trans-3,5-dimethylpiperidin-1-yl][1,2,4]triazolo[4,3-a]pyrazin-8-amine], the IC50 stood at 0.01 µM in assay [1], 3.6 µM in assay [2], 4.2 µM in assay [3] and 5.2 µM in assay [4].

In the case of `CC1CCN(c2nnc3c(N)nccn23)CC1C` (single isomer, unassigned) [Example 230, 3-(3,4-dimethylpiperidin-1-yl) [1,2,4]triazolo[4,3-a]pyrazin-8-amine], the 50% inhibitory concentration (IC50) in assay [1] came to 0.08 µM; in assay [2], 4 µM; in assay [3], 2.9 µM; in assay [4], 19.6 µM.

As to `CC1CCN(c2nnc3c(N)nccn23)CC1C` (single isomer, unassigned) [Example 231, 3-(3,4-dimethylpiperidin-1-yl) [1,2,4]triazolo[4,3-a]pyrazin-8-amine], the IC50 came out at 0.01 µM in assay [1], 3.6 µM in assay [2], 2.1 µM in assay [3] and 4.8 µM in assay [4].

Take `CC1CCC(C)N(c2nnc3c(N)nccn23)C1` (single isomer, unassigned) [Example 232, 3-(2,5-dimethylpiperidin-1-yl) [1,2,4]triazolo[4,3-a]pyrazin-8-amine]: the half-inhibitory concentration (IC50) in assay [1] was found to be 0.003 µM; in assay [2], 1.4 µM; in assay [3], 4.6 µM; in assay [4] it was 0.35 µM.

Turning to `CC1CCC(C)N(c2nnc3c(N)ncc(C#N)n23)C1` (single isomer, unassigned) [Example 234, 8-amino-3-(2,5-dimethylpiperidin-1-yl) [1,2,4]triazolo[4,3-a]pyrazine-5-carbonitrile], the IC50 in assay [1] was determined as 0.00015 µM; in assay [2] it was 6.3 µM; in assay [3] it was 2.7 µM; in assay [4], 3.2 µM.

Consider `CC1CCC(C)(C)CN1c1nnc2c(N)nccn12` (single isomer, unassigned) [Example 236, 3-(2,5,5-trimethylpiperidin-1-yl) [1,2,4]triazolo[4,3-a]pyrazin-8-amine], for which the 50% inhibitory concentration (IC50) in assay [1] came out at 0.033 µM; in assay [2], 0.036 µM; in assay [3], 0.86 µM; in assay [4] it was 0.16 µM.

`CC1CCCCC1c1nnc2c(N)ncnn12` (single isomer, unassigned) [Example 238, 3-(cis-2-methylcyclohexyl) [1,2,4]triazolo[3,4-f][1,2,4]triazin-8-amine]: the values for the IC50 in assay [1] and in assay [4] were under 0.01 µM and 1.9 µM, respectively. For the same compound, the inhibition at 1 µM in assay [2] (setting [5]) is 63%; in assay [3] (setting [6]), 51%.

For `CC1CCCC(c2nnc3c(N)ncnn23)C1` (single isomer, unassigned) [Example 240, 3-(cis-3-methylcyclohexyl) [1,2,4]triazolo[3,4-f][1,2,4]triazin-8-amine], the 50% inhibitory concentration (IC50) in assay [1] was under 0.01 µM; in assay [4], 3.1 µM. Moreover, the inhibition at 1 µM in assay [2] (setting [5]) was determined as 86%. In addition, in assay [3] (at 1 μmol/L), the “inhibition rate (%) at prescribed concentration, PDE8” value stood at 95% at 1.

On to `CC1(C)CCCC(c2nnc3c(N)ncnn23)C1` (single isomer, unassigned) [Example 242, 3-(3,3-dimethylcyclohexyl) [1,2,4]triazolo[3,4-f][1,2,4]triazin-8-amine], for which the IC50 was under 0.01 µM in assay [1] and 2.86 µM in assay [4]. Besides, the inhibition at 1 µM stood at 53% in assay [2] (setting [5]) and 84% in assay [3] (setting [6]).

`Nc1ncnn2c(C3CCCC(C(F)(F)F)C3)nnc12` (single isomer, unassigned) [Example 244, 3-[cis-3-(trifluoromethyl)cyclohexyl][1,2,4]triazolo[3,4-f][1,2,4]triazin-8-amine]: the IC50 in assay [1] was under 0.01 µM; in assay [2] it was 1.6 µM; in assay [4], 52.6 µM. Further, in assay [3] (setting [6]), the inhibition at 1 µM was 73%.

`CC1(C)CCCN(c2nnc3c(N)ncc(C#N)n23)C1` [Example 2, 8-amino-3-(3,3-dimethylpiperidin-1-yl) [1,2,4]triazolo[4,3-a]pyrazine-5-carbonitrile]: the concentration for half-maximal inhibition (IC50) in assay [1] was found to be 0.0007 µM; in assay [3], 1.62 µM; in assay [4] it was 6.23 µM. The inhibition at 1 µM in assay [2] (setting [5]) is 61%.

Take `C[C@H]1CC[C@H](n2nnc3c(N)ncnc32)CC1` [Example 8, 3-(trans-4-methylcyclohexyl)-3H-[1,2,3]triazolo[4,5-d]pyrimidin-7-amine]: the IC50 in assay [1] stood at 0.01 µM; in assay [2], 2.13 µM; in assay [3], 0.24 µM. Moreover, in assay [4], the inhibition at 10 µM came to 48%.

As to `Nc1nccn2c(C3CC4(CC4)C3)nnc12` [Example 20], the IC50 in assay [1] was found to be 0.08 µM; in assay [3], 1.58 µM. The inhibition at 10 µM in assay [2] (at 10 μmol/L, read-out: inhibition rate (%) at prescribed concentration, PDE4) was 40%; in assay [4] it was 22%.

With `C[C@@H]1CCCCN1c1nnc2c(N)nccn12` [Example 22, 3-(2-methylpiperidin-1-yl) [1,2,4]triazolo[4,3-a]pyrazin-8-amine], the half-maximal inhibitory concentration (IC50) in assay [1] was 0.04 µM; in assay [2], 8.3 µM; in assay [3], 5.8 µM; in assay [4], 5.5 µM.

Take `CC1CCCN(c2nnc3c(N)nccn23)C1` (centres unmarked) [Example 24]: the IC50 worked out at 0.07 µM in assay [1], 6.3 µM in assay [2], 1.6 µM in assay [3] and 12.9 µM in assay [4].

In the case of `CC1(C)CCCN(c2nnc3c(N)nccn23)C1` [Example 26, 3-(3,3-dimethylpiperidin-1-yl) [1,2,4]triazolo[4,3-a]pyrazin-8-amine], the concentration for half-maximal inhibition (IC50) in assay [1] turned out to be 0.02 µM; in assay [2] it was 4.59 µM; in assay [3], 7.66 µM; in assay [4], 21.1 µM.

For `CC1CCN(c2nnc3c(N)nccn23)CC1` [Example 28], the IC50 in assay [1] was determined as 0.09 µM; in assay [2], 4.3 µM; in assay [3], 3.7 µM; in assay [4], 28.4 µM.

On to `Nc1nccn2c(N3CCCCCC3)nnc12` [Example 29], for which the half-inhibitory concentration (IC50) in assay [1] came to 0.08 µM; in assay [2], 5.4 µM; in assay [3] it was 5.1 µM; in assay [4], 11.9 µM.

With `CC(C)(C)OC(=O)N1CCCCC1c1nnc2c(N)nccn12` (centres unmarked) [Example 32, tert-butyl 2-(8-amino-[1,2,4]triazolo[4,3-a]pyrazin-3-yl)piperidine-1-carboxylate], the IC50 came out at 0.08 µM in assay [1], 5.78 µM in assay [2], 2.27 µM in assay [3] and 22.6 µM in assay [4].

Regarding `Nc1nccn2c(N3CCCCC34CC4)nnc12` [Example 38], the IC50 came out at 0.08 µM in assay [1], 5.21 µM in assay [2], 2.74 µM in assay [3] and 25 µM in assay [4].

With `CCc1cnc(N)c2nnc(N3CCCC(C)(C)C3)n12` [Example 42, 3-(3,3-dimethylpiperidin-1-yl)-5-ethyl[1,2,4]triazolo[4,3-a]pyrazin-8-amine], the IC50 in assay [1] is under 0.01 µM; in assay [2], 3 µM; in assay [3], 1.7 µM; in assay [4], 5.2 µM.
